The values below come from publication PMC7835894 (Molecules, 2021).

The test system of the assay is Caco-2. Nature of the assay: MTT antiproliferation assay. The assay is classed as cell-based, human. Particulars: Homo sapiens; Caco-2, MTT, 24 h, single agent, mean ± SEM. The protocol:
The antiproliferation and cytotoxicity were assessed using 3-(4,5-dimethylthiazol-2-yl)-2,5-diphenyltetrazolium bromide (MTT, Serva) colorimetric assay. To investigate the antiproliferation, all cell lines were seeded at a density of 20,000 cells per well in 96-well plates and allowed to adhere overnight. […] These concentrations were prepared by diluting the stock solutions with serum-free culture media. The negative control cells were those treated with 0.1% DMSO solvent alone. The treated cells were handled in reduced light and maintained under standard culture growth conditions for 24 h. After the incubation period, MTT powder was prepared as a stock solution (5 mg/mL) and 20 μL of the MTT working reagent (final concentration 0.5 mg/mL) was added to each well. This was followed by incubation with MTT reagent for 4 h in a humidified atmosphere (37 °C, 5% CO2) with subsequent addition of 150 μL of DMSO solubilizing solvent and incubation for 20 min. The absorbance of solubilized violet formazan crystals was measured at 540 nm with Biotek 800 TS microplate reader. IC50 was calculated as the concentration of retinoid that produced 50% cell growth inhibition. For cytotoxicity assessment, WI-38 normal human fibroblast cells were used for the calculation of SI which is the ratio of IC50 retinoid (WI-38)/IC50 retinoid (cancer cell line).

Take `O=c1[nH]cc(F)c(=O)[nH]1` [5-FU, 5-fluorouracil, reference compound]: the IC50 is 18.4 ± 0.6 µM.

In general, IC50 refers to the midpoint of a concentration-inhibition curve. Lower therefore signals inhibition by little substance.
